In brackets after ≈: the same amount, converted by molar mass. Values belong to the compound of their own block, whether it stands above or below them.
Key:
[1] = Selectivity index, ratio of CC50 for human TZM-bl cells to EC50 for wild type HIV1 3B infected in human TZM-bl cells; format: toxicity, cell-based; conditions: read-out: Selectivity Index
[2] = test system: Human immunodeficiency virus 1; assay: Antiviral activity against wild type HIV1 3B infected in human TZM-bl cells after 4 days by ELISA; format: functional, organism-based; conditions: Human immunodeficiency virus 1, 3B, 96 h
[3] = test system: TZM; assay: Cytotoxicity against human TZM-bl cells; format: functional
[4] = test system: Human immunodeficiency virus 1; assay: Antiviral activity against HIV1 3B infected in human C8166 cells; format: functional, organism-based; conditions: Human immunodeficiency virus 1, 3B, C8166
[5] = test system: TZM; assay: Cytotoxicity against human TZM-bl cells assessed as reduction in cell viability after 4 hrs by MTT assay; format: functional
[6] = test system: Human immunodeficiency virus 1; assay: Antiviral activity against wild type HIV1 3B infected in human TZM-bl cells assessed as viral infection at 50 ug/ml after 1 hr relative to control; format: functional; conditions: Human immunodeficiency virus 1, 3B
[7] = test system: Human immunodeficiency virus 1; assay: Antiviral activity against HIV1; format: functional, organism-based
[8] = test system: Human immunodeficiency virus 2; assay: Antiviral activity against HIV2 ROD after 48 hrs […]; format: functional, organism-based; conditions: Human immunodeficiency virus 2, ROD
[9] = test system: Human immunodeficiency virus 1; assay: Antiviral activity against HIV1 3B after 48 hrs […]; format: functional, organism-based; conditions: Human immunodeficiency virus 1, 3B
[10] = biological target: Human immunodeficiency virus type 1 reverse transcriptase (Human immunodeficiency virus 1, UniProt Q72547); assay: Inhibition of HIV-1 reverse transcriptase after 1 hr by ELISA
[11] = test system: C8166; assay: Cytotoxicity against human C8166 cells assessed as reduction in cell viability; format: functional, cell-based
[12] = Selectivity index, ratio of CC50 for human C8166 cells to EC50 for HIV1 3B infected in human C8166 cells; format: toxicity, cell-based; conditions: read-out: Selectivity Index
[13] = test system: Human immunodeficiency virus 1; assay: Antiviral activity against wild type HIV1 3B infected in human MT4 cells using [3H]dGTP by radio-labelled binding assay; format: functional, organism-based; conditions: Human immunodeficiency virus 1, 3B
[14] = test system: Human immunodeficiency virus 2; assay: Antiviral activity against HIV2 ROD; format: functional, organism-based; conditions: Human immunodeficiency virus 2, ROD
[15] = test system: Human immunodeficiency virus 1; assay: Antiviral activity against HIV1 3B; format: functional, organism-based; conditions: Human immunodeficiency virus 1, 3B
[16] = Inhibition of HIV-2 ROD9 integrase E92Q mutant; set-up: species or system Human immunodeficiency virus 2
[17] = Inhibition of HIV-2 ROD9 integrase N155H mutant; set-up: species or system Human immunodeficiency virus 2
[18] = Inhibition of HIV-2 ROD9 integrase T97A/N155H double mutant; set-up: species or system Human immunodeficiency virus 2
[19] = Inhibition of HIV-2 ROD9 integrase G140S/Q148R double mutant; set-up: species or system Human immunodeficiency virus 2
[20] = biological target: T1, Human immunodeficiency virus type 2 integrase (Human immunodeficiency virus 2, UniProt P89582); assay: Inhibition of wild type HIV-2 ROD9 integrase
T1 sequence (P89582 whole entry): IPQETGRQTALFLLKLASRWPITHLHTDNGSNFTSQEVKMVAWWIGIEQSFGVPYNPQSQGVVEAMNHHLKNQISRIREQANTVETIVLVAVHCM

[21] = Inhibition of HIV-2 ROD9 integrase T97A mutant; set-up: species or system Human immunodeficiency virus 2
[22] = Inhibition of HIV-2 ROD9 integrase Y143C mutant; set-up: species or system Human immunodeficiency virus 2
[23] = Inhibition of HIV-2 ROD9 integrase E92Q/N155H double mutant; set-up: species or system Human immunodeficiency virus 2
[24] = Inhibition of HIV-2 ROD9 integrase Q148H mutant; set-up: species or system Human immunodeficiency virus 2
[25] = Inhibition of HIV-2 ROD9 integrase Q148R mutant; set-up: species or system Human immunodeficiency virus 2
[26] = Inhibition of HIV-2 ROD9 integrase G140S mutant; set-up: species or system Human immunodeficiency virus 2
[27] = Inhibition of HIV-2 ROD9 integrase E92Q/Y143C double mutant; set-up: species or system Human immunodeficiency virus 2
[28] = Inhibition of HIV-2 ROD9 integrase T97A/Y143C double mutant; set-up: species or system Human immunodeficiency virus 2

EC50 [2]: 242 µM
SMILES: CC1OC(=O)c2ccccc2C1(Cl)c1ccc(C#Cc2ccccc2)cc1 (configuration not stated)
selectivity ratio [1]: 0.9
CC50 [3]: 215 µM

IC50 [4]: 0.76 µM
SMILES: O=C(CC1(O)C(=O)Nc2ccc(Cl)cc21)c1ccccc1Cl (configuration not stated)

SMILES: NC1=CNC(=O)/C1=N/Nc1ccc([N+](=O)[O-])cc1
Activity [5]: 80%
inhibition at 50 µg/mL [6]: 91%

EC50 [7]: 0.86 µM
SMILES: O=C(N[C@H]1C(=O)Nc2ccccc2C2CCCN21)OCc1ccccc1 (some centres not stated)

SMILES: Cc1ccccc1NC(=O)CSC1[Se]N=NC1c1ccc(Cl)c(Cl)c1 (configuration not stated)
EC50 [8]: > 22.3 µM
EC50 [9]: 5.56 µM

EC50 [2]: 29.3 µM
SMILES: CC1OC(=O)c2ccccc2C1(Cl)c1ccccc1 (configuration not stated)
selectivity ratio [1]: 10
CC50 [3]: 293 µM

IC50 [10]: 12.5 µM
SMILES: COc1ccc2c(c1)CCCN2CCC(=O)N1CCN(c2ccccc2C)CC1
IC50 [11]: 114 µg/mL (≈ 291 µM)
selectivity ratio [12]: 24.2

SMILES: O=C(CSC1[Se]N=NC1c1ccc(Cl)c(Cl)c1)Nc1ccccc1Cl (configuration not stated)
EC50 [8]: > 23.4 µM
EC50 [9]: > 23.4 µM

IC50 [10]: 0.27 µM
SMILES: COc1ccccc1C(=O)CC1(O)C(=O)Nc2ccc(Cl)cc21 (configuration not stated)

IC50 [10]: 24.2 µM
SMILES: COc1ccc2c(c1)CCCN2CCC(=O)N1CCN(c2ccccc2)CC1
IC50 [11]: 83.2 µg/mL (≈ 219 µM)
selectivity ratio [12]: 5.9

SMILES: Cc1ccc(NC(=O)CSC2[Se]N=NC2c2ccc(Cl)c(Cl)c2)cc1 (configuration not stated)
EC50 [8]: > 13.3 µM
EC50 [9]: 6.65 µM

EC50 [2]: 314 µM
SMILES: CCCC1OC(=O)c2ccccc2C1(Cl)c1ccc(F)cc1 (configuration not stated)
selectivity ratio [1]: 0.8
CC50 [3]: 251 µM

EC50 [8]: > 18.9 µM
EC50 [9]: 2.45 µM
SMILES: CC(=O)c1ccc(NC(=O)CSC2[Se]N=NC2c2ccc(Cl)c(Cl)c2)c(Br)c1 (configuration not stated)

SMILES: O=C(CSC1[Se]N=NC1c1ccc(Cl)c(Cl)c1)Nc1ccccc1F (configuration not stated)
EC50 [8]: > 26.9 µM
EC50 [9]: > 26.9 µM

EC50 [7]: 14 µM
SMILES: Cn1ccc2c1S(=O)(=O)c1ccccc1NC2=O

EC50 [2]: 126 µM
SMILES: CCC1OC(=O)c2ccccc2C1(Cl)c1ccc(F)cc1 (configuration not stated)
selectivity ratio [1]: 2.1
CC50 [3]: 263 µM

EC50 [8]: > 26.3 µM
EC50 [9]: 5.42 µM
SMILES: Cc1ccc(NC(=O)CSC2[Se]N=NC2c2ccc(Cl)c(Cl)c2)c([N+](=O)[O-])c1 (configuration not stated)

SMILES: NC1=CNC(=O)/C1=N/Nc1cccc(Cl)c1
Activity [5]: 52%
inhibition at 50 µg/mL [6]: 93%

IC50 [13]: 0.044 µM
SMILES: Cc1cccc(N2C(=O)CSC2c2c(Cl)cccc2Cl)n1 (configuration not stated)

IC50 [13]: 0.053 µM
SMILES: Cc1cccc(N2C(=O)CSC2c2c(F)cccc2Cl)n1 (configuration not stated)

EC50 [14]: 0.55 µg/mL (≈ 1.51 µM)
EC50 [15]: 0.62 µg/mL (≈ 1.7 µM)
SMILES: Cn1cc(C(=O)O)c(=O)c2ccc(N3CCN(c4ccccn4)CC3)nc21

EC50 [14]: > 0.41 µg/mL
EC50 [15]: > 0.41 µg/mL
SMILES: Cn1cc(C(=O)O)c(=O)c2ccc(N3CCN(c4cccc(C(F)(F)F)c4)CC3)nc21

EC50 [14]: 0.922 µg/mL (≈ 2.48 µM)
EC50 [15]: 3.15 µg/mL (≈ 8.48 µM)
SMILES: Cn1cc(C(=O)O)c(=O)c2ccc(N3CCN(c4nccs4)CC3)nc21

EC50 [14]: 0.02 µg/mL (≈ 0.0475 µM)
EC50 [15]: 0.03 µg/mL (≈ 0.0712 µM)
SMILES: Cn1cc(C(=O)O)c(=O)c2ccc(N3CCN(c4nc5ccccc5s4)CC3)nc21

SMILES: C[C@@H]1CCO[C@H]2Cn3cc(C(=O)NCc4ccc(F)cc4F)c(=O)c(O)c3C(=O)N12 [DOLUTEGRAVIR]
EC50 [16]: 0.0077 µM
EC50 [17]: 0.005 µM
EC50 [18]: 0.027 µM
EC50 [19]: 0.108 µM
EC50 [20]: 0.0023 µM
EC50 [21]: 0.0032 µM
EC50 [22]: 0.0077 µM
EC50 [23]: 0.025 µM
EC50 [24]: 0.0035 µM
EC50 [25]: 0.0057 µM
EC50 [26]: 0.0032 µM
EC50 [27]: 0.015 µM
EC50 [28]: > 10 µM

SMILES: Cc1cn([C@H]2C[C@H](N=[N+]=[N-])[C@@H](CO)O2)c(=O)[nH]c1=O [ZIDOVUDINE]
IC50 [11]: 1570 µg/mL (≈ 5860 µM)
